Source: patent US11666517B2, “Antimicrobial composition” (Firmenich SA, priority 2016, dated 2023)
Where two headings read alike, the source gives them in different places.

Columns and labels:
E. coli DSMZ 1103 [1] = assay: Fractional Inhibitory Concentration Index (FIC) / MIC, 96-well broth dilution of ingredient combinations; assay type: cell-based, Escherichia coli; conditions: for MIC: Escherichia coli, DSMZ1103, 24 h, read-out: Concentration of ingredient alone (Minimal Inhibitory Concentration, MIC alone); for FIC: ingredient alone at its MIC
Procedure: (§1) The method below allows evaluating antimicrobial activity of different raw materials in combination. The Fractional Inhibitory Concentration Index (FIC Index) is a measure of activity (Garcia L. S., Clinical Microbiology Procedures Handbook, pg. 140-162, 3rd Edition (2010), ASM Press, Washington D.C.) and is calculated according to the formula below:
(§2) [formula] where (MICA alone) and (MICB alone) are the Minimal Inhibitory Concentrations (MIC) of individual ingredients A and B when used in isolation, respectively; whereas (MICA combination) and (MICB combination) are the Minimal Inhibitory Concentrations of materials A and B when tested in combination. Ingredient A corresponds to nona-2,6-dien-1-ol and ingredient B stands for 3-neopentylpyridine, 2-methylhexan-3-one oxime, terpineol or 2-isopropyl-5-methylphenol.
(§3) The Minimal Inhibitory Concentration of a material is defined as the lowest concentration of an agent which can inhibit visible bacterial growth (CLSI M08-A8 Methods for dilution Antimicrobial Susceptibility Test for Bacteria That Grow Aerobically; Approved Standard-Eighth Edition).
(§4) Bacterial suspensions of E. coli DSMZ 1103 and S. aureus DSMZ 1104 were prepared as follows: a frozen stock aliquot was streaked on a Tryptic Soy Agar plate, which was then incubated at 37° C. for 24 hours. A single bacterial colony was picked and inoculated into 50 ml of Mueller Hinton Broth contained in a 100 ml-flask. Incubation was performed overnight at 37° C., under agitation (160 rpm). The following day, the overnight culture was diluted into 50 ml of fresh Mueller Hinton Broth at 1:50 and 1:100 for S. aureus and E. coli, respectively. Growth at 37° C. was continued as described above until the absorbance measured at 600 nm reached 0.7-0.9 and 0.3-0.45 for S. aureus and E. coli, respectively. At this point, cells were harvested by centrifugation (10 min—5000×g—4° C.) and suspended in fresh Mueller Hinton Broth at a concentration of 1×10^8 CFU/ml.
(§5) Solutions of raw materials under evaluation (ingredients A and B) were prepared in ethanol and then serially diluted in the desired concentration into 96-well microtiter plates (10 μl per well). Columns 1, 10, 11 and 12 received only 10 μl ethanol without any testing material. The final concentration of ethanol was 5% w/v for all wells.
(§6) Then, 90 μl of cell suspension as prepared above were added to each well of the microtiter plate, with the exception of column 12 which received 90 μl of Mueller Hinton Broth. The final volume of each well was brought to 200 μl with Mueller Hinton Broth. Each plate was sealed and incubated at 37° C. for 24 hours, under agitation (160 rpm). After incubation, plate reading was performed visually by recording wells with visible bacterial growth. Each combination of materials was tested in triplicate. Turbidity due to potential precipitation of raw materials was taken into account by scoring plates containing identical raw material concentrations, without bacteria.

S. aureus DSMZ 1104 = assay: as above; assay type: cell-based, Staphylococcus aureus; conditions: for MIC: Staphylococcus aureus, DSMZ1104, 24 h, read-out: Concentration of ingredient alone (Minimal Inhibitory Concentration, MIC alone); for FIC: ingredient alone at its MIC
Procedure: as §1, §2, §3, §4, §5, §6

E. coli DSMZ 1103 [2] = assay: BCT test in 50% liquid soap base; assay type: cell-based, Escherichia coli; conditions: Table 21: single material 0.3% in 50% liquid soap base, contact time 45 sec
Procedure: Bacterial solutions of the two strains, E. coli DSMZ 1103 and S. aureus DSMZ 1104, were prepared for BCT test as follows. Stock cultures stored at −80° C. were sub-cultured onto Tryptic Soy Agar (TSA) agar plate media, and incubated at 37° C. for 24 h to obtain single colonies. Single colonies of the primary cultures were streaked onto TSA slant and incubate it at 37° C. incubator for 24 h. Bacterial lawns of the slant culture were collected in PBS buffer to make suspensions with the target level of 1-5×10^8 CFU/mL. The 1:100 dilution of each cell suspension in PBS buffer was used as the bacterial solutions for the BCT test.
Test samples of base with synergistic binary mixtures were prepared as follows. Raw materials of the synergistic binary mixtures (Table 17) were mixed with the liquid soap base PGK-10-003 (Table 18). Aliquots (2.5 g) of each mixture were weighed into 20 ml glass tube with a stirrer bar, and added with equal amount of MilliQ water to make 50% suspension as the test samples for the BCT test.
BCT tests were performed in the 20 ml sample tubes. Each sample tube with 5 g of 50% sample suspension was placed onto a magnetic stirrer, and an aliquot of bacterial solution (100 μl) was added to the sample and allowed for a contact of 45 sec during mixing. Then aliquots (0.5 ml) of the mixture were transferred into 5 ml PBS, and further serial dilutions were made in 4.5 ml PBS. Aliquots (0.5 ml) of PBS dilutions were plated onto duplicate plates of TSA plates using the pour plate method. TSA plates were incubated at 37° C. for 48 h. After incubation, colonies on TSA plates were enumerated and log reduction of each sample were calculated against the CFU counts of the control sample (MilliQ water).

C. xerosis ATCC 373 = assay: BCT test in 90% roll-on deodorant base; assay type: cell-based, Corynebacterium xerosis; conditions: Table 25: single material 0.216% in 90% roll-on deodorant base, contact time 120 sec
Procedure: Bacterial solution of C. xerosis ATCC 373 strain was prepared for BCT test as follows. Stock cultures stored at −80° C. were subcultured onto Tryptic Soy Agar media with 0.5% Tween 80 (TSA-TW80), and incubated at 37° C. for 48 h. The primary cultures were subcultured onto TSA-TW80 again to prepare the secondary cultures. Single colonies of secondary culture were inoculated into 30 ml of Brain Heart Infusion (BHI) broth with 0.5% Tween 80 (BHI-TW80), and incubated at 37° C. 180 rpm for 24 h. Aliquots (1 ml) of the 24 h culture were inoculated into 30 ml of fresh BHI-TW80 broth, and incubated at 37° C. 180 rpm for 48 h. Aliquots (2-3 ml) of the 48 h culture were inoculated into four 50 ml of fresh BHI-TW80 broth medium, and incubated at 37° C. 180 rpm for 4-6 hrs. When the OD reached the target value of 1.6, cells were harvested by centrifugation at 5000 rpm for 10 min, and then resuspended in the same fresh broth media to a target concentration of 10^9 to 10^10 cfu/mL. This suspension was used as the bacterial solution for the BCT test.
Test samples of base with synergistic binary mixtures were prepared as follows. Raw materials of the synergistic binary mixtures were weighed (Table 22), and mixed with 0.3 g PEG-40 Hydrogenated Castor Oil and 9.57 g deodorant roll on base (Table 23).
BCT tests were performed in 15 ml sample tubes. Aliquots (0.9 g) of each sample were weighed into the tube, and an aliquot of bacterial solution (100 μl) was added to the sample and allowed for a contact time of 120 sec with constant mixing. At the end of the contact time, aliquots (9 ml) of BHI broth were added to the tube. The suspensions were mixed well by vortexing, and further 1:10 serial dilutions were made in […] BHI. Aliquots (1 ml) of BHI dilutions were plated onto duplicate plates of TSA-TW80 using pour plate methods. TSA-TW80 plates were incubated at 37° C. for 2-3 days. After incubation, colonies on TSA-TW80 plates were enumerated and log reduction of each sample were calculated against the CFU counts of the control sample (BHI).

[3] = ingredient used in isolation, other ingredient 0 ppm, 37° C., 24 hours

Compound | MIC (E. coli DSMZ 1103 [1]; [3]) [µg/mL] | FIC (E. coli DSMZ 1103 [1]; other ingredient 0 ppm) | MIC (E. coli DSMZ 1103 [1]) [µg/mL] | MIC (S. aureus DSMZ 1104) [µg/mL] | FIC (S. aureus DSMZ 1104; other ingredient 0 ppm) | Average log reduction ± SEM (n = 2) (E. coli DSMZ 1103 [2]) [log] | Log reduction (C. xerosis ATCC 373) [log] | MIC (S. aureus DSMZ 1104; [3]) [µg/mL]
CC(C)=CCCC(C)=CCO (stereo in doubt) [(Z)-3,7-Dimethyl-2,6-octadien-1-ol] | 1200 | 1.000 | – | – | – | – | – | –
O=Cc1ccc2c(c1)OCO2 [1,3-Benzodioxole-5-carbaldehyde] | – | 1.000 | 1200 | 1200 | 1.00 | – | – | –
Cc1ccc(C(C)C)c(O)c1 [2-isopropyl-5-methylphenol] | 600 | 1.000 | – | – | – | 0.4 ± 0.0 | 6.0 | –
CCCC(=NO)C(C)C [2-methylhexan-3-one oxime] | – | – | – | – | 1.00 | – | – | 4800
CC(C)(C)Cc1cccnc1 [3-neopentylpyridine] | 600 | 1.000 | – | – | 1.00 | 0.3 ± 0.2 | 5.9 | –
COc1ccc(C=O)cc1 [4-Methoxybenzaldehyde] | 1200 | 1.000 | – | – | 1.00 | – | – | –
CC/C=C\CC/C=C/CO [(2E,6Z)-nona-2,6-dien-1-ol] | – | 1.000 | – | – | 1.00 | 0.3 ± 0.2 | 5.7 | –
CC(C)[C@H]1CC[C@@H](CO)CC1 [cis-4(Isopropyl)cyclohexanemethanol] | 9600 | 1.000 | – | – | – | – | – | –
CC1=CCC(C(C)(C)O)CC1 (stereo not drawn) [α-terpineol] | – | – | – | – | – | – | – | 1200
